Results from patent US11116708B2, “Personal care compositions including naringin:zinc complexes and methods for the same” (Colgate-Palmolive Company, priority 2017, dated 2021).

Columns and labels:
[1] = tested on: human epidermal keratinocyte cells; assay: Scratch assay (cell migration / gap closure) using human epidermal keratinocyte cells; type: cell-based; settings: 0.001% sample
Experimental: The cell regeneration function or properties of the naringin:zinc complex were evaluated via a scratch assay using human epidermal keratinocyte cells obtained from Thermal Fisher Scientific of Gaithersburg, Md. Particularly, monolayers of keratinocyte cells were gown to full confluency in separate wells, and each well was scratched with a 1000 μl tip to create a cell-free gap. Each of the wells with the cell-free gap was then washed with 1 mL of PBS twice to remove any dead floating cells. […] Distance measurements of the gap were taken every 24 hours until the gaps fully closed.
It should be appreciated that a relatively higher value of the percentage of gap closure indicates a relatively greater repair or regeneration function.

IL-1a = IL-1a assay using HaCaT cells stressed with 0.01% SDS (ELISA of cell supernatants); type: cell-based; settings: 0.001% sample, 24 h pretreatment, 0.01% SDS stress 15 min, sample added again, normalized by cell viability
Experimental: The anti-inflammatory properties of the naringin:zinc complex was evaluated by conducting an IL-la assay using HaCaT cells. To evaluate the anti-inflammatory properties, HaCaT cells were grown into 80% confluency and pretreated for 24 hours with 1 mL of each of the following samples: (1) a culture media (control); (2) 0.001% naringin:zinc complex; and (3) 0.001% naringin alone.
After pretreating the HaCaT cells, the cells were stressed with 0.01% SDS for 15 minutes before adding another 1 mL of each of the samples (1)-(3). Each of the HaCaT cells were used to prepare cell supernatants, which were used for IL-la assays with IL-la ELISA kits.

`C[C@@H]1O[C@@H](O[C@H]2[C@H](Oc3cc(O)c4c(c3)O[C@H](c3ccc(O)cc3)CC4=O)O[C@H](CO)[C@@H](O)[C@@H]2O)[C@H](O)[C@H](O)[C@H]1O` [Naringin, naringin] was tested, and the Cell Migration of Keratinocytes (% Active); percentage of gap closure versus the starting gap distance [1] was 58% and the IL-1a level (IL-1a) was 6.6 pg/mL.
